This note sets out measurements from PMC4057637, “Efficacy of novel antibacterial compounds targeting histidine kinase YycG protein” (Applied Microbiology and Biotechnology, 2014).

Holding throughout (type): cell-based
One data set concerns S. aureus ATCC 49230. Kind of data set: MIC, broth dilution. To be noted: Staphylococcus aureus, ATCC49230. How it is done: (§1) MICs of the derivatives for S. epidermidis and S. aureus were determined by the broth dilution method according to the National Committee for Clinical Laboratory (NCCLS) recommendations (Turnidge and Bordash [2007]). Twofold dilutions of the derivatives in tubes containing 4 ml of Mueller-Hinton broth (MH, Sigma, Germany) were made to concentrations from 200 to 0.39 μM. Overnight cultures of the bacteria were adjusted to the 0.5 McFarland standards and inoculated 1:200 into the MH broth and then incubated at 37 °C for 16–20 h. The lowest concentration inhibiting visible growth of the bacteria was recorded as minimal inhibitory concentration (MIC).
Background: Dilution methods test growth across graded concentrations, often in twofold steps.

The next data set has as its system S. aureus ATCC 25923. As to the kind of experiment: MIC, broth dilution. The note with it: Staphylococcus aureus, ATCC25923. The procedure: as §1
For data set [1], the system named is S. epidermidis ATCC 12228. As to the kind of experiment: MIC, broth dilution. The note with it: Staphylococcus epidermidis, ATCC12228. The procedure: as §1
The next data set in a line: Cytotoxicity, MTT assay. To be noted: African green monkey, Vero 76 cells. How it is done: Vero 76 cells (African green monkey cells) were used to determine the cytotoxicity of the derivatives with the Cell Proliferation Kit I (MTT) (Roche, Indianapolis, USA). The Vero cells were grown in Dulbecco’s modified Eagle’s medium (DMEM), supplemented with 5 % fetal calf serum, 100 U/ml penicillin, […] streptomycin, and 2 mM L-glutamine. After culturing in 5 % CO2 at 37 °C for 48 h, the cells were harvested and dispensed into 96-well cell culture plates containing 5 × 10^4 cells per well in 100 μl. The cells were co-incubated with serial twofold dilutions of derivatives from 200 to 6.25 μM (six different concentrations) for 24 h at 37 °C in 5 % CO2. Then, 10 μl of the MTT labeling reagent (final concentration 0.5 mg/ml) was added to each well and incubated for 4 h. The solubilization solution (100 μl per well) was added to dissolve the purple formazan salts generated in the viable cells, and the absorbance of each well was measured at 595 nm. Cells treated with the solvent (0.1 % DMSO) were used as a negative control and the cells cultured only with DMEM medium served as a blank control. The inhibitory rate was calculated as follows: Inhibitoryrate%=Ocontrol−ODtest/ODcontrol×100
CC50 was defined as the concentration of the derivatives that inhibited the Vero cell growth by 50 % and was calculated with the Origin v8.0 software (Origin Lab, Northampton, USA) (Qin et al. [2006]).
For orientation: Tetrazolium assays rely on reduction of a dye to a coloured formazan, in cell work by metabolically active cells.

In data set [2] the test system is S. epidermidis ATCC 35984. As to the kind of experiment: Derivatives combined with vancomycin or cefazolin (FIC index). The note with it: for MIC: Staphylococcus epidermidis, ATCC35984, line paired with vancomycin, read-out: MIC Derivative alone; for MIC Derivative alone: line paired with cefazolin. The text has this: Combination antimicrobial therapy is widely used to take advantage of different mechanisms of action. It may potentiate the effect of individual antimicrobial agents by synergic action (Bijnsdorp et al. [2011]; Cokol et al. [2011]). The glycopeptide antibiotics, such as vancomycin, can bind the peptidoglycan side chains in the cell wall and prevent cross-linking during cell wall synthesis. Vancomycin has been considered to be one of the most reliable therapeutic agents against staphylococcal infections, but it is unable to clear biofilms even at high concentration (128 mg/l) (Climo et al. [1999]; Darouiche et al. [1994]; Tenover et al. [2001]). […] YycGF also plays an important role in the synthesis of peptidoglycan in B. subtilis and S. aureus (Bisicchia et al. [2007]; Dubrac and Msadek [2004]). In a preliminary study, we assessed the effects of the combined application of the derivatives with vancomycin and cefazolin against S. epidermidis ATCC 35984 according to the method of Odds ([2003]) (Cottagnoud et al. [2003]). […] No antagonism was observed between the derivatives and vancomycin or cefazolin (Table S1).
17 Table S1. The derivatives combined with vancomycin or cefazolin against S. epidermidis
Derivatives Antibiotics MIC (mg/L) FICIa Synergyb
Derivative Antibiotic In combination
alone alone (Derivative/Antibiotic)
19 a The FICI was calculated as FIC indexes= (MICderivative A in combination/MICderivative A
20 alone)+(MICantibiotic B in combination/MIC antibiotic B alone).
21 b The interaction between the two antibacterials is noted as follows: FIC index≤0.5,
22 Synergy (+); 0.5<FIC index≤4 (-), No interaction; FIC≥4.0, Antagonism.

The mark [3] stands for this setting: cefazolin combined with the labelled derivative.
Where [4] appears, read: derivative combined with cefazolin.
Where [5] appears, read: derivative combined with vancomycin.
The mark [6] stands for this setting: vancomycin combined with the labelled derivative.

Each structure is given as a SMILES string. In brackets after ≈: the same amount, converted by molar mass.

As a reminder, the MIC is the smallest concentration in the dilution series that meets the test's criterion for growth inhibition. The CC50 is the concentration giving 50% cytotoxicity. The low end stands for harm at low concentration, the high end for better tolerance by the cells. `CCc1ccccc1/N=C1\S/C(=C\c2ccc(OCC(=O)O)c(OC)c2)C(=O)N1c1ccccc1CC` [Compound 2, {2-{4-{3-(2-ethylphenyl)-2-[(2-ethylphenyl)imino]-4-oxothiazolidin-5-ylidene}methyl}-2-methoxyphenoxy}acetic acid]: the minimum inhibitory concentration (MIC) against S. aureus ATCC 49230 stood at 50 µM (≈ 25.8 µg/mL); in the data set with S. aureus ATCC 25923 it was 50 µM (≈ 25.8 µg/mL); in data set [1] it was 25 µM (≈ 12.9 µg/mL). In “Cytotoxicity, MTT assay”, the cytotoxic concentration (CC50) at 24 h came to 50 µM.
In the case of `O=C(O)c1cccc(-c2ccc(C=C3SC(=Nc4ccc(Cl)cc4)N(c4ccc(Cl)cc4)C3=O)o2)c1` [H2-38, 3-{5-{{3-(4-chlorophenyl)-2-[(4-chlorophenyl)imino]-4-oxothiazolidin-5-ylidene}methyl}furan-2-yl}benzoic acid], the MIC is 1.5 µM (≈ 0.803 µg/mL) in the data set with S. aureus ATCC 49230, 1.5 µM (≈ 0.803 µg/mL) with S. aureus ATCC 25923, 1.5 µM (≈ 0.803 µg/mL) in data set [1] and 0.8 µg/mL in data set [2]. Moreover, the “MIC In combination: antibiotic” value in data set [2] (setting [3]) and in data set [2] (setting [6]) was 0.5 µg/mL each time. For the same molecule, the FICI in data set [2] (derivative + cefazolin) worked out at 0.56; in data set [2] (derivative + vancomycin), 0.63. The “MIC In combination: derivative” value in data set [2] (setting [4]) and in data set [2] (setting [5]) was 0.4 µg/mL each time. Moreover, the “MIC Derivative alone” value in data set [2] came to 0.8 µg/mL. In addition, the CC50 at 24 h in the data set “Cytotoxicity, MTT assay” was over 200 µM.
Take `O=C(O)c1ccc(-c2ccc(C=C3SC(=Nc4ccc(Cl)cc4)N(c4ccc(Cl)cc4)C3=O)o2)cc1` [H2-39, 4-{5-{{3-(4-chlorophenyl)-2-[(4-chlorophenyl)imino]-4-oxothiazolidin-5-ylidene}methyl}furan-2-yl}benzoic acid]: the minimum inhibitory concentration (MIC) against S. aureus ATCC 49230 is 1.5 µM (≈ 0.803 µg/mL); in the data set on S. aureus ATCC 25923, 1.5 µM (≈ 0.803 µg/mL); in data set [1] it was 1.5 µM (≈ 0.803 µg/mL); in data set [2], 0.8 µg/mL. Moreover, the “MIC In combination: antibiotic” value was determined as 0.25 µg/mL in data set [2] (setting [3]) and 0.5 µg/mL in data set [2] (setting [6]). Moreover, the FICI in data set [2] (derivative + cefazolin) is 0.53; in data set [2] (derivative + vancomycin) it was 1.13. The “MIC In combination: derivative” value was determined as 0.4 µg/mL in data set [2] (setting [4]) and 0.8 µg/mL in data set [2] (setting [5]). For the same molecule, the “MIC Derivative alone” value in data set [2] came out at 0.8 µg/mL. The CC50 at 24 h in the data set “Cytotoxicity, MTT assay” was over 200 µM.
`O=C(O)c1ccc(-c2ccc(/C=C3\S/C(=N\c4ccccc4)N(c4ccc(Cl)cc4)C3=O)o2)cc1` [H2-57, 4-{5-{{3-(4-chlorophenyl)-2-[(4-phenyl)imino]-4-oxothiazolidin-5-ylidene}methyl}furan-2-yl}benzoic acid]: the MIC against S. aureus ATCC 49230 came to 1.5 µM (≈ 0.751 µg/mL); in the data set on S. aureus ATCC 25923, 3.1 µM (≈ 1.55 µg/mL); in data set [1], 3.1 µM (≈ 1.55 µg/mL); in data set [2] it was 1.7 µg/mL. The “MIC In combination: antibiotic” value was 0.25 µg/mL in data set [2] (setting [3]) and 0.5 µg/mL in data set [2] (setting [6]). Also, the FICI in data set [2] (derivative + cefazolin) worked out at 0.53; in data set [2] (derivative + vancomycin) it was 1.13. Moreover, the “MIC In combination: derivative” value in data set [2] (setting [4]) is 0.85 µg/mL. Besides, the CC50 at 24 h in the data set “Cytotoxicity, MTT assay” was over 200 µM.
As to `O=C(O)c1ccc(-c2ccc(C=C3SC(=Nc4ccc(F)cc4)N(c4ccc(F)cc4)C3=O)s2)cc1` [H2-60, 4-{5-{{3-(4-fluorophenyl)-2-[(4-fluorophenyl)imino]-4-oxothiazolidin-5-ylidene}methyl}thiophene-2-yl}benzoic acid], the minimum inhibitory concentration (MIC) in the data set with S. aureus ATCC 49230 came to 1.5 µM (≈ 0.778 µg/mL); against S. aureus ATCC 25923 it was 1.5 µM (≈ 0.778 µg/mL); in data set [1] it was 1.5 µM (≈ 0.778 µg/mL); in data set [2], 1.7 µg/mL. The “MIC In combination: antibiotic” value in data set [2] (setting [3]) and in data set [2] (setting [6]) was 0.25 µg/mL in each case. In addition, the FICI came out at 0.53 in data set [2] (derivative + cefazolin) and 0.56 in data set [2] (derivative + vancomycin). Further, the “MIC In combination: derivative” value in data set [2] (setting [4]) and in data set [2] (setting [5]) was 0.85 µg/mL each time. Further, in the data set “Cytotoxicity, MTT assay”, the 50% cytotoxic concentration (CC50) at 24 h was over 200 µM.
Take `O=C(O)COc1ccc(C=C2SC(=Nc3ccc(Cl)cc3)N(c3ccc(Cl)cc3)C2=O)cc1` [H2-74, 2-{4-{[3-(4-chlorophenyl)-2-[(4-chlorophenyl)imino]-4-oxothiazolidin-5-ylidene}methyl}phenoxy}acetic acid]: the MIC in the data set on S. aureus ATCC 49230 amounted to 1.5 µM (≈ 0.749 µg/mL); with S. aureus ATCC 25923, 3.1 µM (≈ 1.55 µg/mL); in data set [1], 1.5 µM (≈ 0.749 µg/mL); in data set [2], 0.8 µg/mL. Further, the entries for the “MIC In combination: antibiotic” value in data set [2] (setting [3]) and in data set [2] (setting [6]) were 1 µg/mL and 0.5 µg/mL, respectively. Further, the FICI in data set [2] (derivative + cefazolin) was determined as 0.63; in data set [2] (derivative + vancomycin), 0.38. The “MIC In combination: derivative” value worked out at 0.4 µg/mL in data set [2] (setting [4]) and 0.2 µg/mL in data set [2] (setting [5]). In data set [2], the “MIC Derivative alone” value came out at 0.8 µg/mL. This molecule registered a half-maximal cytotoxic concentration (CC50) at 24 h in the data set “Cytotoxicity, MTT assay” of over 200 µM.
`O=C(O)c1ccc(-c2ccc(/C=C3\S/C(=N\c4ccccc4)N(c4ccc(F)cc4)C3=O)s2)cc1` [H2-81, 4-{5-{{3-(4-fluorophenyl)-2-[(4-phenyl)imino]-4-oxothiazolidin-5-ylidene}methyl}thiophene-2-yl}benzoic acid]: the MIC was determined as 1.5 µM (≈ 0.751 µg/mL) against S. aureus ATCC 49230, 1.5 µM (≈ 0.751 µg/mL) against S. aureus ATCC 25923, 1.5 µM (≈ 0.751 µg/mL) in data set [1] and 0.7 µg/mL in data set [2]. The “interaction with vancomycin or cefazolin (in words)” value in data set [2] (S. epidermidis ATCC 35984, preliminary study) is on record as “synergistic effect”. The “MIC In combination: antibiotic” value in data set [2] (setting [3]) and in data set [2] (setting [6]) was 1 µg/mL each time. Also, the FICI in data set [2] (derivative + cefazolin) was found to be 0.38; in data set [2] (derivative + vancomycin), 0.5. Besides, the “MIC In combination: derivative” value in data set [2] (setting [4]) and in data set [2] (setting [5]) was 0.18 µg/mL throughout. The “MIC Derivative alone” value in data set [2] stood at 0.7 µg/mL. In the data set “Cytotoxicity, MTT assay”, this molecule came in with a cytotoxic concentration (CC50) at 24 h of over 200 µM.
